Publication PMC5073322, “Novel Natural Product-like Caged Xanthones Bearing a Carbamate Moiety Exhibit Antitumor Potency and Anti-Angiogenesis Activity In vivo” (Scientific Reports, 2016)

Assays:
HepG2 tumours = experiment: HepG2 hepatoblastoma xenograft in nude mice; type: in vivo; details: 20 days; for inhibition of the tumour volume: IV, twice-daily
Description: Given the in vitro anti-tumour cell activity of 8n, we continued to evaluate its in vivo effect in hepatoblastoma xenograft models using previously reported methods, and the water-soluble anti-cancer drug 5-fluorouracil (5-FU) was used as a positive control. After tumours were established, the mice were IV injected with 2.5, 5, 10 or 50 mg/kg 8n; the lead compound DDO-6101 and antitumour drug 5-FU were used as controls. All mice had normal weights and quality of life in in vivo tests. […] The in vivo activity of 8n was also evaluated after oral administration. […] This observation may be attributed to the improved physicochemical properties of 8n compared to those of DDO-6101, such as aqueous solubility and cell membrane permeability, which were provided by modification with the carbamate moiety.
Figure 7 (A) The tumour diameters were measured and used to calculate the tumour volumes. The HepG2 xenograft-bearing mice were intravenously injected with 2.5, 5, 10 and 50 mg/kg 8n for 20 days. (B) After 20 days, mice were sacrificed and the individual tumours were weighed. *p < 0.05, […]; Student’s t-test (n = 6). (C) The tumour diameters were measured and used to calculate the tumour volumes. The HepG2 xenograft-bearing mice were orally administered 50 mg/kg 8n, 50 mg/kg DDO-6101 or 10 mg/kg 5-FU for 20 days.
All studies were performed in compliance with the relevant guidelines and regulations. Tumours on female nude mice were established by injecting 1×10^7 HepG2 cells on the dorsal surface. After four weeks, tumours of approximately 150 mm^3 were cut into pieces that were 3 mm×3 mm×3 mm in size and were then implanted in the dorsal surface of other female nude mice. One week later, mice implanted with xenografts of 100 mm^3 were selected, randomized, and […] injected with 2.5, 5, or 10-mg/kg 8n or vehicle daily for another three weeks. The tumour dimensions were measured daily with vernier calipers, and the tumour volumes were calculated using the formula: volume = (width)^2 × length/2.

HUVECs [1] = experiment: Tube formation assay; type: cell-based, human; details: Matrigel
Description: (§1) GA was reported to inhibit tumour angiogenesis and may be a viable drug candidate for anti-angiogenesis and anticancer therapies. Therefore, the anti-angiogenesis activity of the caged xanthone derivative 8n was evaluated. Human umbilical vein endothelial cells (HUVECs) were used in all experiments. Cell migration is critical for endothelial cells to form blood vessels during angiogenesis, tumour growth and metastasis. […] Endothelial cell invasion is a critical part of angiogenesis; therefore, a transwell assay was performed to evaluate the ability of inactivated HUVECs to pass through the transwell membrane barrier in the presence of 8n.
Figure 8 8n had anti-angiogenesis activity in vitro and in vivo. (A) A wound-healing assay was used to evaluate the motility of HUVECs after treatment with 8n for 24 h. (B) Changes in cell motility were evaluated using a transwell assay of cell migration and invasion. (C) The effect of 8n on tube formation by HUVECs. […] (D) Zebrafish embryos treated with blank control or 1, 10, or 50 μg/ml of 8n.
The tube formation assay was performed as previously reported with some modifications. A 48-well cell culture plate and the tips used were pre-chilled at −20 °C for 10 mins and then carefully coated with Matrigel (200 μL/well; Becton Dickinson, Bedford, MA, USA). Caution was taken to avoid bubbles. […]

Water solubility by HPLC = type: physicochemical; details: deionized water, stirred overnight, HPLC 290 nm
Text: The physicochemical characteristics of compounds directly determine their potential drug-like properties. Assessing a compound’s physicochemical properties before performing in vivo evaluations can guide further studies and minimize the time and cost associated with drug discovery. Therefore, parallel to the in vivo study, these solubilities of these compounds in water were experimentally measured using high-performance liquid chromatography (HPLC). Based on the results of full wave scanning, 290 nm was chosen as the maximum absorption wavelength for HPLC detection.
A HPLC system with an ultraviolet (UV) detector was used to detect the solubility of the compounds. The optimal wavelength was 290 nm. Ethanol/water (85:15) was an efficient eluent at a flow rate of 0.5 mL/min. The compounds were stirred in deionized water overnight to maximize the retention of the compounds in solution. Then, the solutions were filtered and the supernatant was used as a fluid sample for HPLC detection. The permeability (Pe) of some of the compounds was tested with the help of a standard PAMPA (pION), as previously reported. PAMPA was performed on a PAMPA Explorer instrument (pION, Inc., Woburn, MA) with the PAMPA Explorer command software (Version 3.7.4.1). The compounds were diluted to 10 mM with the system solution buffer (pH 7.4). Then, 150 μL of the diluted compound solution was transferred to a UV plate, and the UV spectrum was collected and used as a reference. Then, paint the membrane with 5 μL of gastrointestinal tract (GIT) lipid. The acceptor chamber was filled with 200 μL of acceptor solution buffer, and the donor chamber was filled with 200 μL of diluted compound solution. The PAMPA sandwich was assembled and left at 25 °C for 4 h. The UV spectra (240–500 nm) from the donor and the acceptor were collected. The permeability coefficient was calculated with the PAMPA Explorer Command software (Version 3.7.4.1) based on the area under the curve (AUC) of the reference plate, the donor plate, and the acceptor plate. The permeability coefficient of the compound was tested for four times, and the data are shown as the average values. Ketoprofen (4.5×10^−6 cm/s) and propranolol (112.8×10^−6 cm/s) were used as the standards in this assay.

HUVECs [2] = experiment: Wound healing assay (hypoxia-induced migration); type: cell-based, human; details: 0.01, 0.05 and 0.25 μM, 24 h
Description: as §1
Figure 8 8n had anti-angiogenesis activity in vitro and in vivo. (A) A wound-healing assay was used to evaluate the motility of HUVECs after treatment with 8n for 24 h. (B) Changes in cell motility were evaluated using a transwell assay of cell migration and invasion. (C) The effect of 8n on tube formation by HUVECs. HUVECs were incubated with 8n for 6 h and then transferred to Matrigel for 6 h. (D) Zebrafish embryos treated with blank control or 1, 10, or 50 μg/ml of 8n.
HUVECs were incubated in a 6-well plate until full confluence. […] Then, the wound edges were photographed under an inverted-phase microscope and measured.

CC(C)=CCC12OC(C)(C)C3CC(C=C4C(=O)c5c(OC(=O)N6CCC(N7CCCCC7)CC6)cccc5OC431)C2=O (stereo not shown) [Compound 8n]
inhibition of the tumour volume (HepG2 tumours; 2.5 mg/kg): 27.97% | inhibition of the tumour volume (HepG2 tumours; 5 mg/kg): 38.50% | inhibition of the tumour volume (HepG2 tumours; 10 mg/kg): 48.36% | inhibition of tumour growth (HepG2 tumours; 50 mg/kg, oral, daily): 30.12% | tube-forming ability of HUVECs (HUVECs [1]): significantly impaired | S, water solubility (Water solubility by HPLC): >40 mM | hypoxia-induced migration of HUVECs (HUVECs [2]): suppressed hypoxia-induced migration in a concentration-dependent manner
